Results from patent US20260345584A1, “METHODS AND PHARMACEUTICAL COMPOSITIONS FOR TREATING CHEMOTHERAPY-INDUCED PERIPHERAL NEUROPATHY WITH EG5 INHIBITORS” (UNIVERSITY OF MIAMI, priority 2023, published 2026).

Experiments:
suprabasal keratinocytes = test: dfMT formation in mouse epidermis; format: in vivo; conditions: single injection 20 mg/kg
Procedure: (§1) The mice in each cage were randomly allocated to different treatment groups. Food and water were available ad libitum and experiments were performed during the light cycle (7:00 am to 7:00 pm). Animals were euthanized via CO2 asphyxiation, followed by cervical dislocation. […] The animal's husbandry conformed with established NIH and Institutional Animal Care and Use Committee (IACUC) approved protocols.
(§2) Paws and back skin were collected at predetermined time points, placed in 10% formalin, and stored overnight at 4 °C. Samples were embedded in paraffin and sectioned at 7 μm, deparaffinized, washed with PBS, and incubated at room temperature for 5 min in 0.1% Triton X-100 in PBS and then blocked for 30 min (5% BSA). Sections were incubated with primary antibody diluted in blocking solution, overnight at 4 °C in a humidity chamber. Following PBS washes, sections were incubated for 1 h at room temperature with a secondary antibody. Tissues were mounted and assessed for staining. Antibodies used were against detyrosinated tubulin Millipore AB3201, p-KIF11 Invitrogen PA5-38647, alpha-tubulin Proteintech 66031-1-Ig, mouse Alexa Fluor 488 Invitrogen A21202, and rabbit Alexa flour 546 Invitrogen A10040. DAPI was used for nuclei counterstaining. […]

mmp13a = test: qPCR mmp13 expression, whole larvae; format: in vivo, zebrafish; conditions: wildtype, 48 hr paclitaxel
Procedure: Zebrafish larvae (AB/Nacre) were treated in pools of ~20-30 larvae per treatment per biological replicate (BR); each BR consisted of embryos from distinct parents. Larvae were collected into 1.5 ml reaction tubes post-treatment and RNA extraction was performed using the rNeasy Plus Micro kit (Qiagen, Cat. No. 74034). cDNA was synthesized from ~300 ng total RNA using the Superscript IV VILO kit (Thermo Fisher, Cat. No. 11756050). Primers in target genes were designed wherein primers annealed in two exons separated by one or several large introns that could not be amplified with the selected PCR settings, to avoid genomic DNA contamination. Quantitative PCR was performed with the Applied Biosystems QuantStudio 3 using PowerUp SYBR Green (ThermoFisher, Cat No. A25741). Amplification signals for expressed target genes were normalized to zebrafish 18S rRNA signals. qPCR conditions were used as follows: 95 °C for 10 minutes, 40 cycles of 95 °C for 15 seconds, 50 °C for 30 seconds, 72 °C for 30 seconds. Each biological replicate was run in quadruplicate. Data were presented as relative expression compared to control using the delta-vdelta Ct (2^^-ΔΔCt) method.
Stretching was performed after 96 hr treatment, followed by 2 hr post-stretch fixation, and staining for detection of acetylated tubulin in axons.

skin gene expression = test: Mouse skin RNAseq; format: in vivo; conditions: mice, 2 mg/kg paclitaxel i.p. x4
Procedure: The RNAseq data set was published in Cirrincione et al. (2022, Data 7: 72). Following differential gene expression analysis (FDR<0.01) comparing paclitaxel-treated to vehicle control animals (n=4), identified genes were queried in gProfiler and grouped by their molecular function. Using normalized gene counts, Kif genes were analyzed for their expression and plotted over time. […] Kif11 was queried in STRING to identify associated networks and interacting proteins compared to the RNAseq data set and differentially expressed genes were graphed in Prism 9.
Molecular mechanisms underlying paclitaxel-induced microtubule fasciculation were then investigated. […] Peripheral neuropathy was correlated with these times points using von Frey behavioral testing, which determined that peak neuropathy was present at day 7 (D7). This identified several biological categories during peak neuropathy with the largest clusters being implicated in extracellular matrix organization (e.g. “ECM”, “collagen-containing ECM”, “collagen trimer”) and cell cycle regulation (e.g. “outer kinetochore”, “kinesin complex”, condensed chromosome, centromeric region”, “mitotic spindle”, “microtubules”), consistent with our findings in zebrafish. Interactome analysis using STRING (Szklarczyk et al., 2021, Nucl. Acids Res 49: D605-D612) to predict protein association networks further identified major clusters involved in cell cycle regulation, which contained various kinesins, microtubule and nucleus regulators, as well as one cluster annotated as “disulfide bond”, consistent with a role for oxidative signal activation (Leonard et al., 2011, Current opinion in chemical biology 15: 88-102) (shown in FIG. 3D).

Eg5 = Eg5 / phospho-Eg5 staining in mouse skin; format: in vivo; conditions: single injection, 20 mg/kg; basal and suprabasal keratinocytes
Procedure: as §1, §2

CC(=O)O[C@H]1C(=O)[C@@]2(C)[C@H]([C@H](OC(=O)c3ccccc3)[C@]3(O)C[C@H](OC(=O)[C@H](O)[C@@H](NC(=O)c4ccccc4)c4ccccc4)C(C)=C1C3(C)C)[C@]1(OC(C)=O)CO[C@@H]1C[C@@H]2O [paclitaxel]
dfMT formation in mouse epidermis (suprabasal keratinocytes): resulted in dfMT formation in a subset of suprabasal keratinocytes | mmp13 expression (mmp13a): increased mmp13 expression | expression of Cdk1, Aurka, Aurkb and Kif11 (skin gene expression): upregulated during peak neuropathy | expression of Cyba and Cybb (skin gene expression): upregulated at D23 | expression of checkpoint regulators Plk1, Cdc20, Ndc80, Bub1c, Dlgap5 (skin gene expression): co-upregulation from D7 onward | total and phospho-Eg5 levels (Eg5): increased total and phospho-Eg5 levels
